Measurements from the supplement of paper PMC4858399.
Counter-ions that a name gives are not always drawn.

Tests used:
Conditions in all cases: exposure time 48 h
[1] = test system: Caenorhabditis elegans N2; test: AC50 for larval growth inhibition (Hill fit); higher = less potent
Method in brief: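 Worms were synchronised C. elegans N2 L1 larvae, 50 per well of a 96-well plate, kept 48 h at 20°C in K-medium with killed OP50, 1% DMSO and 0.5–200 µM chemical. Size was taken as COPAS Biosort extinction, log-transformed and averaged per well, using only wells with at least 10 worms. AC50 was estimated by a constrained Hill fit with weighted genetic-algorithm regression; values outside the range are censored.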

[2] = test system: Caenorhabditis elegans N2; test: lowest effective concentration for larval growth inhibition (size below effect threshold); higher = less potent
Method in brief: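 Log-transformed well means of per-worm extinction, read as size on a Biosort, came from 50 C. elegans N2 L1 larvae per 96-well grown 48 h at 20°C in K-medium with killed bacteria, 1% DMSO and 0.5 to 200 µM chemical. The lowest effective concentration is the first dose at which the plate-adjusted mean size is below the threshold and stays below it at every higher dose. The threshold is 5.665.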

[3] = test system: Caenorhabditis elegans N2; test: mean nematode size ln(EXT) after 48 h, plate-adjusted (DMSO control set to 6) (ln(EXT), control-adjusted); higher = larger nematodes / less growth inhibition
Method in brief: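 C. elegans N2 larvae, synchronised at L1, grew for 48 h at 20°C in K-medium with killed OP50, 1% DMSO and 0.5–200 µM chemical. Mean size per well was derived from natural-logged Biosort extinction after a growth model removed debris. Adjustment across plates involved subtracting the vehicle control mean and adding 6.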

SMILES	AC50 for larval growth inhibition [1] [µM]	lowest effective concentration [2] [µM]	mean nematode size ln(EXT) (ln) ([3]; 0.5 µM)	mean nematode size ln(EXT) (ln) ([3]; 1 µM)	mean nematode size ln(EXT) (ln) ([3]; 5 µM)	mean nematode size ln(EXT) (ln) ([3]; 10 µM)	mean nematode size ln(EXT) (ln) ([3]; 50 µM)	mean nematode size ln(EXT) (ln) ([3]; 100 µM)	mean nematode size ln(EXT) (ln) ([3]; 200 µM)
CS(=O)(=O)NC(=O)c1cc(Oc2ccc(C(F)(F)F)cc2Cl)ccc1[N+](=O)[O-] [Fomesafen]	180	200	5.93	5.95	5.95	5.95	5.89	6	5.52
O=C(Nc1ccccc1)Nc1ccnc(Cl)c1 [Forchlorfenuron]	> 200	50	5.77	5.96	5.81	5.82	5.44	5.54	4.5
CNC(=O)Oc1cccc(/N=C/N(C)C)c1 [Formetanate hydrochloride]	62.8	100	5.85	6.01	6	5.93	5.73	5.59	5.47
CCOP(=O)(SC(C)CC)N1CCSC1=O (stereo unspecified) [Fosthiazate]	93.1	200	5.92	5.99	6.15	6.12	5.94	5.79	5.64
O=c1c(-c2ccc(O)cc2)coc2cc(O)cc(O)c12 [Genistein]	> 200	200	5.88	5.89	5.92	5.85	5.89	5.89	5.53
CC(=O)OC/C=C(\C)CCC=C(C)C [Geranyl acetate]	> 200	200	5.79	5.76	5.73	5.81	5.7	5.74	5.61
OCC(O)CO [Glycerol]	> 200	200	5.83	5.87	5.84	5.75	5.87	5.87	5.66
O=C(CCCN1CCC(O)(c2ccc(Cl)cc2)CC1)c1ccc(F)cc1 [Haloperidol]	43.3	10	5.95	5.85	5.93	5.66	4.99	4.71	4.44
ClC1=C(Cl)C2(Cl)C3C(Cl)C=CC3C1(Cl)C2(Cl)Cl (stereo unspecified) [Heptachlor]	6.11	5	5.7	5.98	5.24	4.13	4.03	3.97	3.44
O=S(=O)(O)C(F)(F)C(F)(F)C(F)(F)C(F)(F)C(F)(F)C(F)(F)C(F)(F)C(F)(F)F [Heptadecafluorooctanesulfonic acid potassium salt]	11.4	≤ 0.5	5.46	5.57	5.12	4.63	3.8	3.62	3.47
CCCCCCC(=O)O [Heptanoic acid]	> 200	200	5.88	5.97	5.87	6.04	5.85	5.87	5.43
CCCCC(O)(Cn1cncn1)c1ccc(Cl)cc1Cl (stereo unspecified) [Hexaconazole]	84.2	100	5.86	5.78	5.71	5.99	5.81	4.65	4.09
O=C(NC(=O)c1c(F)cccc1F)Nc1cc(Cl)c(OC(F)(F)C(F)F)c(Cl)c1 [Hexaflumuron]	> 200	10	5.94	5.96	5.8	5.64	5.5	5.44	4.83
CN(C)c1ccc(C(=C2C=CC(=[N+](C)C)C=C2)c2ccc(N(C)C)cc2)cc1 [Hexamethyl-p-rosaniline chloride]	< 0.5	≤ 0.5	4.79	4.53	4.01	3.85	3.66	4.08	4.02
CN(C)c1nc(=O)n(C2CCCCC2)c(=O)n1C [Hexazinone]	109	200	5.85	5.89	5.89	5.92	6	5.92	5.62
C[C@@H]1[C@@H](c2ccc(Cl)cc2)SC(=O)N1C(=O)NC1CCCCC1 [Hexythiazox]	122	100	6.07	5.94	5.91	5.99	5.68	5.34	3.24
CC(=O)S[C@H](C(=O)N[C@H]1Cc2ccccc2[C@H]2CCC[C@@H](C(=O)O)N2C1=O)C(C)C [Ilepatril]	> 200	200	5.89	5.83	5.76	5.88	5.84	5.8	5.58
C=CCOC(Cn1ccnc1)c1ccc(Cl)cc1Cl (stereo unspecified) [Imazalil]	> 200	200	5.91	6.17	6.07	5.99	5.83	5.74	4.6
Cc1cnc(C2=NC(=O)C(C)(C(C)C)N2)c(C(=O)O)c1 (stereo unspecified) [Imazapic]	79.6	50	5.98	6.06	6.04	6.23	5.45	4.31	3.54
O=[N+]([O-])/N=C1\NCCN1Cc1ccc(Cl)nc1 [Imidacloprid]	111	100	5.78	6.02	6.07	6.08	5.96	5.54	4.86
COC(=O)N(C(=O)N1CO[C@@]2(C(=O)OC)Cc3cc(Cl)ccc3C2=N1)c1ccc(OC(F)(F)F)cc1 [Indoxacarb]	6.41	5	6	5.91	5.25	4.02	3.6	3.56	3.48
O=C(N[C@@H](Cc1ccccc1)[C@@H](O)C(=O)N1C[C@@H](O)[C@@H](O)C1)c1cc2cc(Cl)ccc2[nH]1 [Ingliforib]	> 200	100	5.94	5.79	5.75	5.85	5.79	5.46	5.44

SMILES	AC50 for larval growth inhibition [1] [µM]	lowest effective concentration [2] [µM]	mean nematode size ln(EXT) (ln) ([3]; 0.5 µM)	mean nematode size ln(EXT) (ln) ([3]; 1 µM)	mean nematode size ln(EXT) (ln) ([3]; 5 µM)	mean nematode size ln(EXT) (ln) ([3]; 10 µM)	mean nematode size ln(EXT) (ln) ([3]; 50 µM)	mean nematode size ln(EXT) (ln) ([3]; 100 µM)	mean nematode size ln(EXT) (ln) ([3]; 200 µM)
CC(C)NC(=O)N1CC(=O)N(c2cc(Cl)cc(Cl)c2)C1=O [Iprodione]	> 200	200	5.99	5.95	5.85	6.06	5.87	5.8	5.4
CCOP(=S)(OCC)Oc1nc(Cl)n(C(C)C)n1 [Isazofos]	3.38	≤ 0.5	4.88	5.05	4.5	4.43	3.8	3.59	3.78
C=CC(=O)OCCCCCC(C)C [Isooctyl acrylate]	> 200	200	5.42	5.47	5.59	5.64	5.7	5.68	5.52
O=C(O)c1cccc(C(=O)O)c1 [Isophthalic acid]	> 200	200	5.93	5.83	5.85	5.87	5.8	5.82	4.8
CCCN(CCC)c1c([N+](=O)[O-])cc(C(C)C)cc1[N+](=O)[O-] [Isopropalin]	> 200	50	5.89	5.9	5.87	5.73	5.47	5.14	4.96
CS(=O)(=O)c1cc(C(F)(F)F)ccc1C(=O)c1cnoc1C1CC1 [Isoxaflutole]	> 200	200	6.11	6.29	6.22	6.31	6.07	6.15	5.61
O=C1C2(Cl)C3(Cl)C4(Cl)C(Cl)(Cl)C5(Cl)C3(Cl)C1(Cl)C5(Cl)C24Cl (stereo unspecified) [Kepone (Chlordecone)]	3.31	1	5.67	5.53	4.74	4.04	3.69	3.63	4.06
CC(=O)N1CCN(c2ccc(OCC3COC(Cn4ccnc4)(c4ccc(Cl)cc4Cl)O3)cc2)CC1 (stereo unspecified) [Ketoconazole]	85.2	10	6	5.74	5.8	5.62	5.3	4.28	3.53
CCOC(=O)C(C)OC(=O)c1cc(Oc2ccc(C(F)(F)F)cc2Cl)ccc1[N+](=O)[O-] (stereo unspecified) [Lactofen]	138	50	5.89	5.94	5.8	5.86	5.24	5.25	4.89
Cl[C@H]1[C@H](Cl)[C@@H](Cl)[C@@H](Cl)[C@H](Cl)[C@H]1Cl [Lindane]	175	50	5.77	5.98	5.79	5.94	5.42	5.2	4.35
CON(C)C(=O)Nc1ccc(Cl)c(Cl)c1 [Linuron]	104	100	6.04	6.22	6.19	5.98	6.16	5.57	4.43
CC[C@H](C)C(=O)O[C@H]1C[C@@H](C)C=C2C=C[C@H](C)[C@H](CC[C@@H]3C[C@@H](O)CC(=O)O3)[C@H]21 [Lovastatin]	> 200	50	5.85	5.83	5.8	5.83	5.65	5.23	5.06
CCOC(=O)CC(SP(=S)(OC)OC)C(=O)OCC (stereo unspecified) [Malathion]	> 200	100	5.93	6.01	5.79	5.98	5.8	5.59	5.28
S=C([S-])NCCNC(=S)[S-].S=C([S-])NCCNC(=S)[S-].[Mn+2].[Zn+2] [Mancozeb]	> 200	200	5.79	5.84	5.84	5.85	5.83	5.7	5.39
S=C([S-])NCCNC(=S)[S-].[Mn+2] [Maneb]	> 200	200	5.91	5.98	6.05	5.98	5.9	5.83	5.52
CC#Cc1cc(C)nc(Nc2ccccc2)n1 [Mepanipyrim]	> 200	200	5.81	5.81	5.8	5.84	5.7	5.75	5.21
[Cl][Hg][Cl] [Mercuric chloride]	7.77	5	5.91	5.84	5.47	4.41	3.59	3.72	3.64
CS(=O)(=O)c1ccc(C(=O)C2C(=O)CCCC2=O)c([N+](=O)[O-])c1 [Mesotrione]	107	200	5.87	5.92	5.92	6.03	5.9	5.68	5.41
CNC(=S)S [Metam-sodium hydrate]	191	200	6.25	6.2	6.21	6.3	6.43	6.13	5.52
CCC(=O)C(CC(C)N(C)C)(c1ccccc1)c1ccccc1 (stereo unspecified) [Methadone Hydrochloride]	> 200	200	5.87	5.81	5.87	5.88	5.7	5.81	5.54
COc1nn(CSP(=S)(OC)OC)c(=O)s1 [Methidathion]	> 200	1	5.74	5.62	5.48	5.52	5.57	5.38	4.52
CNC(=O)ON=C(C)SC [Methomyl]	91.6	50	5.94	5.95	6.08	5.93	5.19	4.65	3.39
